Results: publication PMC12586598, “A novel long-acting C5a-blocking cyclic peptide prevents sepsis-induced organ dysfunction via effective blockade of the inflammatory cascade” (Signal Transduction and Targeted Therapy, 2025)
Where a SMILES comes first, the peptide text is derived from it.

Key:
[1] = target: T1, human C5a (Homo sapiens, UniProt P01031); assay: SPR binding affinity assay, immobilized human C5a
T1 construct: human C5a (ACROBiosystems, Beijing, China); purchased ACROBiosystems
T1 sequence (P01031 678-751 limits assumed): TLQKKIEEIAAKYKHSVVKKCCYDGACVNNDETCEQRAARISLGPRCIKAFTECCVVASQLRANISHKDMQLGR
Experimental: (§1) Surface plasmon resonance (SPR) analysis was conducted using Biacore 2000 system (GE Healthcare, Germany) at 37°C in running buffer (20 mM Tris-HCl, pH 7.4, 150 mM NaCl, 5 mM KCl, 1 mM MgCl₂, 1 mM CaCl₂). The CM5 sensor chips (GE Healthcare) were activated with NHS/EDC, followed by immobilization of mouse C5a (ACROBiosystems, Beijing, China), human C5a (ACROBiosystems, Beijing, China), mouse C5 (ACROBiosystems, Beijing, China) or mouse C5a-desArg (MCE, Shanghai, China). The peptide-protein interactions were characterized using a concentration-gradient approach (low to high) with a continuous flow rate of 30 μL/min (150 s injection duration). Between analyte concentrations, the sensor surface was regenerated with 10 mM glycine-HCl (pH 2.0; 5 min treatment). Binding and dissociation constants were obtained by globally fitting the data to a 1:1 Langmuir binding model using a Biacore Insight evaluation software (Cytiva, USA).

[2] = target: T2, mouse C5a-desArg (Mus musculus, UniProt P06684); assay: SPR binding affinity assay, immobilized mouse C5a-desArg
T2 construct: mouse C5a-desArg (MCE, Shanghai, China); purchased MCE
T2 sequence (P06684 679-754 limits assumed): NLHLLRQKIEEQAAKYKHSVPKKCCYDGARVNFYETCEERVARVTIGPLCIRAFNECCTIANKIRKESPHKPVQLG
Experimental: as §1

[3] = target: T3, mouse C5 (Mus musculus, UniProt P06684); assay: SPR binding affinity assay, immobilized mouse C5
T3 construct: purchased ACROBiosystems
Experimental: as §1

[4] = system: mouse neutrophils; assay: C5a-triggered chemotaxis assay, mouse neutrophils (IncuCyte); format: cell-based; conditions: 10 ng to 1 μg per well, 24 h
Experimental: The chemotaxis assay in this study was monitored and quantified by the IncuCyte ZOOM® Live-Cell Imaging System. The y-axis label “total area normalized to initial area in each group” in Fig. 3k, m represent the ratio of the total cell area at each time point to the initial area (0 h) within the same field of view. A higher ratio indicates […] cell migration activity.
One hundred nanograms of human C5a protein (ACROBiosystems, Beijing, China) was preincubated with linear or cyclic peptides at the indicated concentrations (10 ng, 100 ng, or 1 μg) in 1640 complete culture medium for 30 min. PMNs isolated by flow cytometric sorting for chemotaxis assays were purchased from Oribiotech Co., Ltd. (Shanghai, China). A total of 1 × 10^4 cells were added to the upper chamber of 96-well cell chemotaxis plates (Sartorius, Germany) and allowed to migrate at 37 °C for 24 h. The chemotactic response of neutrophils toward C5a with or without C5a-blocking peptides was quantified and analyzed via an IncuCyte ZOOM® Live-Cell Imaging System (Sartorius, Germany). The chemotactic response of mouse neutrophils was assessed following the established protocol for PMNs.

[5] = target: T4, C5a-C5aR1 (Homo sapiens, UniProt P01031); assay: Validation of Cp1-specific blockade of C5a-C5aR1 by flow cytometry on PMNs; format: cell-based; conditions: resting and TNF-α activated PMNs, Cy5-C5a
T4 construct: 10 ng of Cy5-labeled human C5a (MCE, Shanghai, China); purchased MCE; host or cells: PMNs from Oribiotech Co., Ltd. (endogenous receptor)
T4 sequence (P01031 678-751): T1 sequence (P01031 678-751 limits assumed)
Experimental: To validate the Cp1-specific blockade of C5a-C5aR1. PMNs isolated by flow cytometric sorting from Oribiotech Co., Ltd. (Shanghai, China) were preincubated with C5aR1-antibody (5 μg), C5aR2-antibody (5 μg), Cp1 (10 μg), Cp1 (10 μg)+C5aR1-antibody (5 μg) or Cp1 (10 μg)+C5aR2-antibody (5 μg) at room temperature for 0.5 h, followed by incubation with 10 ng of Cy5-labeled human C5a (MCE, Shanghai, China) at 4 °C for 0.5 h in the dark. The samples were subsequently centrifuged, washed with PBS and detected via flow cytometry. PMNs were stimulated with 10 ng/mL TNF-α for 12 hours to perform competitive binding assays under activated conditions.

[6] = target: T5, mouse C5a (Mus musculus, UniProt P06684); assay: Plasma C5a/C5 ratio by ELISA after Cp1; format: in vivo; conditions: 100 μg/20 g, normal mice or CLP model mice
T5 sequence (P06684 679-755 limits assumed): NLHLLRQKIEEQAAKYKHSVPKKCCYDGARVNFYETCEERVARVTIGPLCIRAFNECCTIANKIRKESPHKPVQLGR
Excerpt: We evaluated the in vivo neutralization of Cp1 against C5a by measuring the plasma C5a/C5 ratio in normal mice or CLP model mice.

[7] = system: CLP-induced septic mice; assay: Inflammatory factors and chemokines in PLF, Luminex, CLP mice; format: in vivo, mouse
Experimental: Twenty-four hours later, whole blood and PLF were collected under anesthesia. The plasma and PLF supernatants were further isolated via centrifugation (3000 × g, 10 min, 4 °C) and subjected to inflammatory factor and chemokine profiling via the Luminex® multiplex […] Biotechnologies, Shanghai, China). The percent inhibition was calculated relative to that of the sham group (set as 0%).

[8] = system: CLP-treated mice; assay: Response to secondary infection, short-term exposure: LPS stimulation of whole blood; format: in vivo, mouse; conditions: blood taken 24 h post-CLP surgery, 1 μg LPS
Experimental: To evaluate the impact of short-term (24 h) drug exposure on the secondary infection response. Whole blood samples were collected from each group at 24 h post-CLP surgery and stimulated with 1 μg of LPS. The IL-6 levels at 0 h, 2 h, and 4 h poststimulation were quantified via an ELISA kit.

[9] = system: normal mice; assay: Systemic safety evaluation in normal mice; format: in vivo; conditions: 100 μg/20 g i.v., 24 h
Experimental: The cytotoxic potential of cyclic-peptides was evaluated in HUVECs and RAW 264.7 cells. Cells were incubated with serially diluted Cp1 (1 pg-100 μg/mL) for 24 hours at 37°C in a 5% CO₂ humidified atmosphere, followed by cell viability assessment using CCK-8 kit (Dojindo, Japan). For systemic safety evaluation, whole blood samples were collected for hematological analysis, biochemistry analysis and inflammatory profiling analysis. Following euthanasia, major organs were harvested, fixed and processed for H&E staining.

[10] = 100 μg/20 g, 24 h after CLP, relative to Sham set as 0%

T3 sequence (P06684 19-1680): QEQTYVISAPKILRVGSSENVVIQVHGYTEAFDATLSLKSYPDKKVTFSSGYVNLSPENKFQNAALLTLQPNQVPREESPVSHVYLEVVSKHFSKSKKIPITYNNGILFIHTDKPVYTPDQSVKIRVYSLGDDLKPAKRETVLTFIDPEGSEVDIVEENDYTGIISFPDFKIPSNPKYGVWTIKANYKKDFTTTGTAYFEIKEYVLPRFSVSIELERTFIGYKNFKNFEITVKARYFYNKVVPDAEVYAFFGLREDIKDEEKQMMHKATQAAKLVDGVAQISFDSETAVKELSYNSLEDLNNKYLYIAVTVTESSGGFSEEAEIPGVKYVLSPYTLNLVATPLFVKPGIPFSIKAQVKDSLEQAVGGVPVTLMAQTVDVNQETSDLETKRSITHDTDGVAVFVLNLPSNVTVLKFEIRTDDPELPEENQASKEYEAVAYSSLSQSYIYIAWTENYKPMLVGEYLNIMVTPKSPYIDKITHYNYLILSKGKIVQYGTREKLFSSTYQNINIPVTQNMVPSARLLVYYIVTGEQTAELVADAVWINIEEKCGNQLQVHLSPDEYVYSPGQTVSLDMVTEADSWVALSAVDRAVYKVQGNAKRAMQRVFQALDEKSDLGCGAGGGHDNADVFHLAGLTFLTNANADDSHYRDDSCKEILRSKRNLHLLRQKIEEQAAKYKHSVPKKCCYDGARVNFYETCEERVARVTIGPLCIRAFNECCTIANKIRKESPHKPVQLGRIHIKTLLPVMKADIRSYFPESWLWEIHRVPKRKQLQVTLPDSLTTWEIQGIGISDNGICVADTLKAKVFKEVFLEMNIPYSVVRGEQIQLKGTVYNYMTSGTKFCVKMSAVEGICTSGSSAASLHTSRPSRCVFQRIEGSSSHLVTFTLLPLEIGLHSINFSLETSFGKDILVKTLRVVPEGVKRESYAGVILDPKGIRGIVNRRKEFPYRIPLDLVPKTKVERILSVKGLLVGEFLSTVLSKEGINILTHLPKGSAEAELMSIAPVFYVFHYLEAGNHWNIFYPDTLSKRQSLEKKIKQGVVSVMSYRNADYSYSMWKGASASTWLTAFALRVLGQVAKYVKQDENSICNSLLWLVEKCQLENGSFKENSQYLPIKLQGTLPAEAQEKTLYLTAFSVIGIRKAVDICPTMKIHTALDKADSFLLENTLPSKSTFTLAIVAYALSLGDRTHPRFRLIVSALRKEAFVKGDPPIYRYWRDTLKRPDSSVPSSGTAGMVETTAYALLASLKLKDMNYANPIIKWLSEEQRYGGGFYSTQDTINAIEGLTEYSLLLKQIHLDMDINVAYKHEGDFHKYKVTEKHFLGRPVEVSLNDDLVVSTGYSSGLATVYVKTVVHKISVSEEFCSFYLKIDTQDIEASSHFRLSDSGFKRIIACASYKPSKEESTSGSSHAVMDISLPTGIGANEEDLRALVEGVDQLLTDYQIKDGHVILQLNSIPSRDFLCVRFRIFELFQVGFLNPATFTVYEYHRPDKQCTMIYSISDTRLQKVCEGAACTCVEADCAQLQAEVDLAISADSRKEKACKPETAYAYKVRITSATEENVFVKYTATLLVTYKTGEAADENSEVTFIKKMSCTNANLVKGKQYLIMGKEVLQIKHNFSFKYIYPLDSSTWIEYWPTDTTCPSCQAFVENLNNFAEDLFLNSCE

## CSCC[C@@H]1NC(=O)[C@@H]2CCCN2C(=O)[C@H](CCSC)NC(=O)[C@H](CO)NC(=O)[C@H](Cc2c[nH]cn2)NC(=O)CNC(=O)[C@H](CO)NC(=O)[C@H](Cc2ccccc2)NC(=O)[C@H](CCCNC(=N)N)NC(=O)[C@H](CCC(=O)O)NC(=O)[C@H](Cc2ccccc2)NC(=O)[C@H](C(C)C)NC1=O [Cp1] (cyclo(HSMPMVFERFSG))
[1]; pH 7.4, read-out: Ka vs hC5a (SPR)
  kon: 53300 M⁻¹ s⁻¹
[1]; read-out: Kd (dissociation rate) vs hC5a (SPR)
  koff: 0.395 s⁻¹
[2]; pH 7.4, read-out: Ka vs mC5a-desArg (SPR)
  kon: 2490 M⁻¹ s⁻¹
[2]; read-out: Kd (dissociation rate) vs mC5a-desArg (SPR)
  koff: 0.0089 s⁻¹
[3]; pH 7.4, read-out: Ka vs mC5 (SPR)
  kon: 105000 M⁻¹ s⁻¹
[3]; read-out: Kd (dissociation rate) vs mC5 (SPR)
  koff: 0.0745 s⁻¹
[4]
  suppression of C5a-driven recruitment of mouse neutrophils: dose-dependently suppressed
[5]
  specificity of blocking the C5a-C5aR1 axis: selective blockade of the C5a‒C5aR1 interaction
[6]
  plasma C5a/C5 ratio: decreased ratio of C5a/C5
[7]; [10]
  decrease of CCL2 in PLF: 96%
  decrease of CCL3 in PLF: 87%
  decrease of CCL5 in PLF: 89%
  decrease of CCL7 in PLF: 69%
  decrease of CCL12 in PLF: 90%
  decrease of CXCL1 in PLF: 75%
  decrease of CXCL5 in PLF: 94%
  decrease of IL-1β in PLF: 62%
  decrease of IL-6 in PLF: 73%
  decrease of TNF-α in PLF: 77%
[7]; 300 μg of Cp1
  expression of inflammatory factors and chemokines in PLF, high dose: effectively suppressed
[7]; CLP-induced septic mice, first of four 'corresponding' values
  attenuation of IL-6 in PLF: 3.7 fold
[7]; CLP-induced septic mice, fourth of four 'corresponding' values
  attenuation of CXCL1 in PLF: 4.3 fold
[7]; CLP-induced septic mice, third of four 'corresponding' values
  attenuation of CCL2 in PLF: 25 fold
[8]
  IL-6 level at 2 h post-LPS stimulation vs CLP control group: obviously increased IL-6 levels
[9]
  hepatorenal toxicity and tissue injury (blood biochemistry, histopathology): no hepatorenal toxicity or tissue injury
